Measurements as given in patent US20240010635A1, “NOVEL INDIRUBIN DERIVATIVES HAVING HETEROBICYCLIC MOIETIES AND THE USE THEREOF” (priority 2022, published 2024).
Like-named read-outs stand apart in the source and are kept apart here.

Columns and labels:
RET V804L = target: T1, RET V804L (Homo sapiens, UniProt P07949, V804L); assay: ADP-Glo kinase assay, RET V804L; format: biochemical; details: recombinant RET (V804L), 120 min room temperature, read-out: Enzyme activity (IC50, nM) RET V804L
T1 construct: Recombinant proteins containing RET wt, RET (M918T) and RET (V804L) domains were purchased from Promega; purchased Promega V4473
T1 sequence (P07949 724-1016 V804L limits assumed): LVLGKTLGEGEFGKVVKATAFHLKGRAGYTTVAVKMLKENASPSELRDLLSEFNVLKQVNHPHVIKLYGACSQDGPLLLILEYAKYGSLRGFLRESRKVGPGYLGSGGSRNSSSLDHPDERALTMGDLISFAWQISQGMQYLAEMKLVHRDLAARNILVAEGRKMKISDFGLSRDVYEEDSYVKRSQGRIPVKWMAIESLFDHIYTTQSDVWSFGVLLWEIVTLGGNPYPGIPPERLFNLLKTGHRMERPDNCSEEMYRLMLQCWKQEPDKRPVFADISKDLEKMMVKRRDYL
Method: Analysis performed in two steps. First, after kinase reaction, ADP-Glo™ reagent of equal volume was added to finish kinase reaction, and then the rest ATP was exhausted. Second, Kinase Detection Reagent was added to convert ADP to ATP and newly synthesized ATP was measured by luciferase/luciferin reaction at the same time. Generated light was measured by using luminometer. The measured luminescence amount can be applied to the ATP→ADP standard conversion curve to confirm the correlation with the ADP concentration.
Recombinant proteins containing RET wt, RET (M918T) and RET (V804L) domains were purchased from Promega (cat #V8061, cat #VA7274, cat #V4473), respectively. According to the manufacturer's instructions, optimal enzyme, ATP, and substrate concentration were established using ADP-Glo™ Kinase Assay (Promega, USA). […] Then, ADP-Glo™ Reagent (5 μl) was added and reacted at room temperature for further 40 min. Lastly, Kinase Detection Reagent (10 μl) was added and reacted for 30 min more at room temperature, and then phosphorylation of substrate peptide was measured by measuring luciferase signal (Integration time 0.5-1 second) using SpectraMax ID5 reader (Molecular Devices LLC., San Jose, CA, USA). IC50 was calculated by nonlinear regression using Prism version 5.01 (GrapghPad).

MV4-11 = assay: Cell proliferation inhibition in AML cell line MV4-11 (Alamar Blue); format: cell-based; details: Homo sapiens, MV4-11, 72 hours, read-out: Cell proliferation inhibitory activity (GI50) MV4-11
Source text: (§1) Cell proliferation inhibition experiments on acute myeloid leukemia (AML) cell lines tested FLT3 inhibitory activity using MV4-11, Molm-13, and Molm-14 cells, which are FLT3-ITD-expressed AML cell lines. The origin of all cell lines is human-derived cell lines, and the place of purchase and culture conditions of each cell line are as follows.
(§2) MV4-11 cells were purchased form the American Type Culture Collection (ATCC, Rockville, MD, USA, cat #CRL-9591), Molm-13 (DSMZ, cat #ACC554), Molm-14 (DSMZ, cat #ACC777), and then cultured in RPMI 1640 medium (Corning Co. 10-040-CV) supplemented with 10% fetal bovine serum, 1% penicillin/streptomycin and 4 mM L-glutamine (Life Technology, GrandIsland, NY).
(§3) Cell viability was evaluated by Resazurin redox-based analysis method with Alamar Blue Assay Kit (Invitrogen, USA). Specifically, for MV4-11, Molm-13 and Molm-14 cells, 8000 cells were plated on 384-well plates in 45 μl of medium. Compounds were treated with dimethyl sulfoxide (DMSO) as a negative control group. After 3 days (72 hours) of compound addition, 5 μl of Alamar Blue kit reagent was added to each well of 384-well plate and incubated at 37° C. for 2 hours in a humidified CO2 incubator. After incubation, fluorescence density (Flu) was measured at a wavelength of 544 nm and 590 nm using SpectraMax iD3 Multi Mode Microplate Reader (Molecular Devices, ID3-STD). GI50 was calculated by nonlinear regression using Prism version 5.01 (GraphPad, LaJolla, CA, USA).

Molm-13 = assay: Cell proliferation inhibition in AML cell line Molm-13 (Alamar Blue); format: cell-based; details: Homo sapiens, Molm-13, 72 hours, read-out: Cell proliferation inhibitory activity (GI50) Molm-13
Source text: as §1, §2, §3

Molm-14 = assay: Cell proliferation inhibition in AML cell line Molm-14 (Alamar Blue); format: cell-based; details: Homo sapiens, Molm-14, 72 hours, read-out: Cell proliferation inhibitory activity (GI50) Molm-14
Source text: as §1, §2, §3

Row | Structure (SMILES) | IC50 (RET V804L) [nM] | GI50 (MV4-11) [pM] | GI50 (Molm-13; pM) [pM] | GI50 (Molm-14; pM) [pM] | GI50 (Molm-13) [pM] | GI50 (Molm-14) [pM] | GI50 (MV4-11; pM) [pM]
1 | O=C1Nc2ccccc2/C1=C1/Nc2ccccc2/C1=N\OCC(=O)N1C[C@H]2C[C@@H]1CN2 [Example 17, (2Z,3E)-3-((2-((1R,4R)-2,5-diazabicyclo[2.2.1]heptan-2-yl)-2-oxoethoxy)imino)-[2,3′-biindolinylidene]-2′-one] | 0.904 | 440 |  |  |  |  | 
2 | O=C1Nc2ccc(F)cc2/C1=C1/Nc2ccccc2/C1=N\OCCN1C[C@H]2C[C@@H]1CN2 [Example 9, (2Z,3E)-3-((2-((1R,4R)-2,5-diazabicyclo[2.2.1]heptan-2-yl)ethoxy)imino)-5′-fluoro-[2,3′-biindolinylidene]-2′-one] | 0.785 | 260 | 500 | 470 |  |  | 
3 | O=C(CO/N=C1/C(=C2/C(=O)Nc3ccccc32)Nc2ccccc21)N[C@H]1[C@@H]2CNC[C@@H]21 [Example 16, N-((1R,5S,6s)-3-azabicyclo[3.1.0]hexan-6-yl)-2-(((E)-((Z)-2′-oxo-[2,3′-biindolinylidene]-3-ylidene)amino)oxy)acetamide] | 0.472 | 5040 |  |  |  |  | 
4 | N[C@@H]1[C@H]2CN(CCO/N=C3/C(=C4/C(=O)Nc5ccc(F)cc54)Nc4ccccc43)C[C@@H]12 [Example 8, (2Z,3E)-3-((2-((1R,5S,6s)-6-amino-3-azabicyclo[3.1.0]hexan-3-yl)ethoxy)imino)-5′-fluoro-[2,3′-biindolinylidene]-2′-one] | 0.54 | 90600 |  |  |  |  | 
5 | O=C1Nc2ccccc2/C1=C1/Nc2ccccc2/C1=N\OCCN1C[C@H]2C[C@@H]1CN2 [Example 4, (2Z,3E)-3-((2-((1R,4R)-2,5-diazabicyclo[2.2.1]heptan-2-yl)ethoxy)imino)-[2,3′-biindolinylidene]-2′-one] | 0.212 |  | 40 | 30 |  |  | 
6 | O=C1Nc2ccccc2/C1=C1/Nc2ccccc2/C1=N\OCCN1C[C@@H]2C[C@H]1CN2 [Example 5, (2Z,3E)-3-((2-((1S,4S)-2,5-diazabicyclo[2.2.1]heptan-2-yl)ethoxy)imino)-[2,3′-biindolinylidene]-2′-one] | 0.851 | 663 |  |  | 1780 | 1660 | 
7 | O=C1Nc2ccc(F)cc2/C1=C1/Nc2ccccc2/C1=N\OCCN1C[C@@H]2C[C@H]1CN2 [Example 10, (2Z,3E)-3-((2-((1S,4S)-2,5-diazabicyclo[2.2.1]heptan-2-yl)ethoxy)imino)-5′-fluoro-[2,3′-biindolinylidene]-2′-one] | 0.511 | 685 |  |  | 1390 | 1860 | 
8 | N[C@@H]1[C@H]2CN(CCO/N=C3/C(=C4/C(=O)Nc5ccccc54)Nc4ccccc43)C[C@@H]12 [Example 3, (2Z,3E)-3-((2-((1R,5S,6s)-6-amino-3-azabicyclo[3.1.0]hexan-3-yl)ethoxy)imino)-[2,3′-biindolinylidene]-2′-one] | 1.27 | 90600 |  |  |  |  | 
9 | O=C1Nc2ccc(Br)cc2/C1=C1/Nc2ccccc2/C1=N\OCCN1C[C@H]2C[C@@H]1CN2 [Example 13, (2Z,3E)-3-((2-((1R,4R)-2,5-diazabicyclo[2.2.1]heptan-2-yl)ethoxy)imino)-5′-bromo-[2,3′-biindolinylidene]-2′-one] | 0.376 |  | 200 | 170 |  |  | 61
10 | O=C1Nc2ccc(F)cc2/C1=C1/Nc2ccccc2/C1=N\OCC(=O)N1CC2(CNC2)C1 [Example 18, (2Z,3E)-5′-fluoro-3-((2-oxo-2-(2,6-diazaspiro[3.3]heptan-2-yl)ethoxy)imino)-[2,3′-biindolinylidene]-2′-one] | 0.657 | 100000 |  |  |  |  | 
11 | O=C1Nc2ccccc2/C1=C1/Nc2ccccc2/C1=N\OCCN[C@H]1[C@@H]2CNC[C@@H]21 [Example 2, (2Z,3E)-3-((2-((1R,5S,6s)-3-azabicyclo[3.1.0]hexan-6-ylamino)ethoxy)imino)-[2,3′-biindolinylidene]-2′-one] | 0.553 | 7900 |  |  |  |  | 
12 | O=C1Nc2ccc(F)cc2/C1=C1/Nc2ccccc2/C1=N\OCCN1CC2(CNC2)C1 [Example 6, (2Z,3E)-3-((2-(2,6-diazaspiro[3.3]heptan-2-yl)ethoxy)imino)-5′-fluoro-[2,3′-biindolinylidene]-2′-one] | 0.797 | 15600 |  |  |  |  | 
13 | O=C1Nc2ccc(F)cc2/C1=C1/Nc2ccccc2/C1=N\OCC(=O)N1C[C@H]2C[C@@H]1CN2 [Example 20, (2Z,3E)-3-((2-((1R,4R)-2,5-diazabicyclo[2.2.1]heptan-2-yl)-2-oxoethoxy)imino)-5′-fluoro-[2,3′-biindolinylidene]-2′-one] | 1.04 | 1320 |  |  |  |  | 
14 | O=C1Nc2ccc(F)cc2/C1=C1/Nc2ccccc2/C1=N\OCCN[C@H]1[C@@H]2CNC[C@@H]21 [Example 7, (2Z,3E)-3-((2-((1R,5S,6s)-3-azabicyclo[3.1.0]hexan-6-ylamino)ethoxy)imino)-5′-fluoro-[2,3′-biindolinylidene]-2′-one] | 0.742 | 5650 |  |  |  |  | 
15 | O=C(CO/N=C1/C(=C2/C(=O)Nc3ccc(F)cc32)Nc2ccccc21)N[C@H]1[C@@H]2CNC[C@@H]21 [Example 19, N-((1R,5S,6s)-3-azabicyclo[3.1.0]hexan-6-yl)-2-(((E)-((Z)-5′-fluoro-2′-oxo-[2,3′-biindolinylidene]-3-ylidene)amino)oxy)acetamide] | 0.419 | 6780 |  |  |  |  | 
16 | O=C1Nc2ccc(Cl)cc2/C1=C1/Nc2ccccc2/C1=N\OCCN1C[C@H]2C[C@@H]1CN2 [Example 11, (2Z,3E)-3-((2-((1R,4R)-2,5-diazabicyclo[2.2.1]heptan-2-yl)ethoxy)imino)-5′-chloro-[2,3′-biindolinylidene]-2′-one] | 1.02 |  | 162 | 100 |  |  | 40
17 | O=C1Nc2ccccc2/C1=C1/Nc2ccccc2/C1=N\OCC(=O)N1CC2(CNC2)C1 [Example 15, (2Z,3E)-3-((2-oxo-2-(2,6-diazaspiro[3.3]heptan-2-yl)ethoxy)imino)-[2,3′-biindolinylidene]-2′-one] | 0.37 | 100000 |  |  |  |  | 
18 | O=C1Nc2ccccc2/C1=C1/Nc2ccccc2/C1=N\OCCN1CC2(CNC2)C1 [Example 1, (2Z,3E)-3-((2-(2,6-diazaspiro[3.3]heptan-2-yl)ethoxy)imino)-[2,3′-biindolinylidene]-2′-one] | 1.3 | 12400 |  |  |  |  | 
